Values after ≈ are worked out from the molar mass of the structure shown. Active and inactive are the calls of the source. No cut-off for these calls is given here.
What was measured:
[1] = system: Plasmodium falciparum; test: Antimalarial activity against multidrug-resistant Plasmodium falciparum K1 by microculture radioisotope technique; type: functional, organism-based
[2] = system: Mycobacterium tuberculosis; test: Antimycobacterial activity against Mycobacterium tuberculosis H37Ra by green fluorescent protein microplate assay; type: functional
[3] = system: Vero; test: Cytotoxicity against african green monkey Vero cells by green fluorescent protein microplate assay; type: cell-based; conditions: chlorocebus sabaeus
[4] = system: KB; test: Cytotoxicity against human KB cells by resazurin microplate assay; type: functional, cell-based
[5] = system: NCI-H187; test: Cytotoxicity against human NCI-H187 cells by resazurin microplate assay; type: functional, cell-based
[6] = system: MCF7; test: Cytotoxicity against human MCF7 cells by resazurin microplate assay; type: functional, cell-based

Compound | IC50 [1] [µM] | MIC [2] [µg/mL] | IC50 [3] [µM] | Activity [1] | Activity [2] | Activity [3] | Activity [4] | Activity [5] | Activity [6] | further results
CC(C)(O)[C@H]1CC[C@]2(C)[C@H]3CC[C@@H]4[C@@]5(C)CC[C@H](O)C(C)(C)[C@@H]5C[C@H](O)[C@@]4(C)[C@]3(C)[C@@H](O)C[C@@H]12 | 12 | 50 (≈ 105 µM) | 47 |  |  |  |  |  |  | IC50 [4]: 28 µM; IC50 [5]: 12 µM; IC50 [6]: > 105 µM
CC(=O)O[C@H]1CC[C@]2(C)C3=CC[C@]4(C)[C@@H]([C@H]5CC[C@H](C(C)(C)O)OC5)CC[C@@]4(C)C3=CC[C@H]2C1(C)C [HYPOCRELLOL B] |  |  |  | inactive | inactive | Non-toxic | inactive | inactive | inactive | 
NNC(=O)c1ccncc1 [ISONIAZID] |  | 0.0234 (≈ 0.171 µM) |  |  |  |  |  |  |  | 
C=C(C)[C@H]1CC[C@]2(C)[C@H]3CC[C@@H]4[C@@]5(C)CCCC(C)(C)[C@@H]5C[C@H](O)[C@@]4(C)[C@]3(C)[C@@H](O)C[C@@H]12 (relative stereo) |  |  |  | inactive | inactive | Non-toxic | inactive | inactive | inactive | 
CC(C)(O)[C@H]1CC[C@]2(C)[C@H]3CC[C@@H]4[C@@]5(C)CCCC(C)(C)[C@@H]5CC[C@@]4(C)[C@]3(C)[C@@H](O)C[C@@H]12 |  | 12.5 (≈ 28.1 µM) |  |  |  | Non-toxic |  |  |  | 
CC(=O)O[C@H]1CC[C@]2(C)[C@H]3CC[C@@H]4[C@@]5(C)CC[C@H](C(C)(C)O)[C@@H]5C[C@H](O)[C@@]4(C)[C@]3(C)[C@@H](O)C[C@H]2C1(C)C | 5.2 | 6.25 (≈ 12 µM) | 13 |  |  |  |  |  |  | IC50 [4]: 56 µM; IC50 [5]: 11 µM; IC50 [6]: > 96 µM
C=C(C)[C@H]1CC[C@]2(C)[C@H]3CC[C@@H]4[C@@]5(C)CC[C@H](OC(C)=O)C(C)(C)[C@@H]5CC[C@@]4(C)[C@]3(C)[C@@H](O)C[C@@H]12 |  |  |  | inactive | inactive | Non-toxic | inactive | inactive | inactive | 
CC(=O)O[C@H]1CC[C@]2(C)[C@H]3CC[C@@H]4[C@@]5(C)CC[C@H](C(C)(C)O)[C@@H]5C[C@H](O)[C@@]4(C)[C@]3(C)CC[C@H]2C1(C)C |  | 12.5 (≈ 24.9 µM) |  |  |  | Non-toxic |  |  |  | 
CC(C)(O)[C@H]1CC[C@H]([C@H]2CC[C@@]3(C)C4=CC[C@H]5C(C)(C)[C@@H](O)CC[C@]5(C)C4=CC[C@]23C)CO1 [HYPOCRELLOL A] |  |  |  | inactive | inactive | Non-toxic | inactive | inactive | inactive | 
CC(C)(O)[C@H]1CC[C@]2(C)[C@H]3CC[C@@H]4[C@@]5(C)CC[C@H](O)C(C)(C)[C@@H]5CC[C@@]4(C)[C@]3(C)[C@@H](O)C[C@@H]12 |  | > 50 |  |  |  | Non-toxic |  |  |  | 
C[C@H]1[C@@H](O)O[C@@H]2O[C@@]3(C)CC[C@H]4[C@H](C)CC[C@@H]1[C@@]24OO3 [ARTENIMOL] | 0.0011 |  |  |  |  |  |  |  |  | 
Cc1c2ccncc2c(C)c2c1[nH]c1ccccc12 [ELLIPTECINE] |  |  | 9.8 |  |  |  |  |  |  | 
CC(=O)O[C@H]1CC[C@]2(C)C3=C(CC[C@H]2C1(C)C)[C@]1(C)CC[C@H]([C@H]2CC[C@H](C(C)(C)O)OC2)[C@@]1(C)C[C@H]3O [HYPOCRELLOL D] | 8 | 50 (≈ 96.8 µM) | 30 |  |  |  |  |  |  | IC50 [4]: 15 µM; IC50 [5]: 18 µM; IC50 [6]: 38 µM

Reference: ChEMBL document CHEMBL1926505, “Lanostane and hopane triterpenes from the entomopathogenic fungus Hypocrella sp. BCC 14524” (J Nat Prod, 2011)
